# Measured values: patent US11896573B2, “Pharmaceutical compositions and pharmacokinetics of a gamma-hydroxybutyric acid derivative” (priority 2020, dated 2024)
# Read-outs that look alike come from different tables or passages of the source.
# Assay: Single ascending dose study, plasma pharmacokinetics of Compound (1) and GHB
# Format: in vivo, human
# Settings: fasted; for Tmax / AUC(0-inf) / AUC(0-t) / Cmax / half-life: human, plasma; for Tmax: read-out: Compound (1) plasma Tmax, Median; for AUC(0-inf) / AUC(0-t) / Cmax / half-life: po
# Method: The plasma concentrations of Compound (1) and GHB in plasma in healthy human subjects were measured using liquid chromatography tandem mass-spectroscopy and evaluated using PHOENIX™ WINNONLIN® version 8.1 (Pharsight Corporation, USA) and MICROSOFT® EXCEL® (Microsoft Corporation, USA).
# All randomized subjects who received Compound (1), with available pharmacokinetic (PK) data and without relevant deviations interfering with the PK evaluations, were included. Subjects who received only placebo were excluded from the PK population. In addition, the PK population was used for the summaries and analyses of all PK data.
# A randomized, double-blind, single-center, single ascending dose study was undertaken to evaluate the safety, tolerability, and pharmacokinetics of Compound (1) and GHB in healthy subjects.
# Compound (1) was administered to randomized healthy subjects at doses from 0.1 g to 7.25 g as an aqueous solution of Compound (1) in water. The subjects fasted for at least 10 hours overnight with clear liquids allowed prior to dosing and the subjects were fasted for 4 hours after dosing.
# Plasma samples were obtained at various times following oral administration and the plasma concentrations of Compound (1) and GHB were measured.
# [1] = Cohort 7 (7.25 g) single oral dose
structure (smiles),measurement,setting,value
"CC(C)[C@H](N)C(=O)OCCCC(=O)O [Compound (1), 4-((L-valyl)oxy)butanoic acid]","Compound (1) CL/F, Max",[1],433 L/h
same,"Compound (1) CL/F, Mean",[1],376 L/h
same,"Compound (1) CL/F, Median",[1],375 L/h
same,"Compound (1) CL/F, Min",[1],298 L/h
same,"Compound (1) plasma AUC0-inf, Max",[1],24300 ng·h/mL
same,"Compound (1) plasma AUC0-inf, Min",[1],16700 ng·h/mL
same,"Compound (1) plasma AUC0-tlast, Max",[1],24300 ng·h/mL
same,"Compound (1) plasma AUC0-tlast, Min",[1],16700 ng·h/mL
same,"Compound (1) plasma Cmax, Max",[1],26000 ng/mL
same,"Compound (1) plasma t1/2, Max",[1],1.28 h
same,"Compound (1) plasma t1/2, Min",[1],0.92 h
same,Tmax,"0.1 g, Cohort 1 (0.10 g) single oral dose",0.25 h
same,Tmax,"0.5 g, Cohort 2 (0.50 g) single oral dose",0.75 h
same,Tmax,"1.5 g, Cohort 3 (1.50 g) single oral dose",1 h
same,Tmax,"4.5 g, Cohort 5 (4.50 g) single oral dose",0.75 h
same,AUC(0-inf),"0.1 g, Cohort 1 (0.10 g) single oral dose, read-out: Compound (1) plasma AUC0-inf, Mean",250 ng·h/mL
same,AUC(0-inf),"0.1 g, Cohort 1 (0.10 g) single oral dose, read-out: Compound (1) plasma AUC0-inf, Median",252 ng·h/mL
same,AUC(0-t),"0.1 g, Cohort 1 (0.10 g) single oral dose, read-out: Compound (1) plasma AUC0-tlast, Mean",249 ng·h/mL
same,AUC(0-t),"0.1 g, Cohort 1 (0.10 g) single oral dose, read-out: Compound (1) plasma AUC0-tlast, Median",250 ng·h/mL
same,Cmax,"0.1 g, Cohort 1 (0.10 g) single oral dose, read-out: Compound (1) plasma Cmax, Mean",420 ng/mL
same,Cmax,"0.1 g, Cohort 1 (0.10 g) single oral dose, read-out: Compound (1) plasma Cmax, Median",373 ng/mL
same,half-life,"0.1 g, Cohort 1 (0.10 g) single oral dose, read-out: Compound (1) plasma t1/2, Mean (converted)",0.7 h
same,half-life,"0.1 g, Cohort 1 (0.10 g) single oral dose, read-out: Compound (1) plasma t1/2, Median (converted)",0.71 h
same,AUC(0-inf),"0.5 g, Cohort 2 (0.50 g) single oral dose, read-out: Compound (1) plasma AUC0-inf, Mean",1290 ng·h/mL
same,AUC(0-inf),"0.5 g, Cohort 2 (0.50 g) single oral dose, read-out: Compound (1) plasma AUC0-inf, Median",1280 ng·h/mL
same,AUC(0-t),"0.5 g, Cohort 2 (0.50 g) single oral dose, read-out: Compound (1) plasma AUC0-tlast, Mean",1290 ng·h/mL
same,AUC(0-t),"0.5 g, Cohort 2 (0.50 g) single oral dose, read-out: Compound (1) plasma AUC0-tlast, Median",1280 ng·h/mL
same,Cmax,"0.5 g, Cohort 2 (0.50 g) single oral dose, read-out: Compound (1) plasma Cmax, Mean",1540 ng/mL
same,Cmax,"0.5 g, Cohort 2 (0.50 g) single oral dose, read-out: Compound (1) plasma Cmax, Median",1270 ng/mL
same,half-life,"0.5 g, Cohort 2 (0.50 g) single oral dose, read-out: Compound (1) plasma t1/2, Mean (converted)",1.11 h
same,half-life,"0.5 g, Cohort 2 (0.50 g) single oral dose, read-out: Compound (1) plasma t1/2, Median (converted)",1.19 h
same,AUC(0-inf),"1.5 g, Cohort 3 (1.50 g) single oral dose, read-out: Compound (1) plasma AUC0-inf, Mean",2480 ng·h/mL
same,AUC(0-inf),"1.5 g, Cohort 3 (1.50 g) single oral dose, read-out: Compound (1) plasma AUC0-inf, Median",2710 ng·h/mL
same,AUC(0-t),"1.5 g, Cohort 3 (1.50 g) single oral dose, read-out: Compound (1) plasma AUC0-tlast, Mean",2860 ng·h/mL
same,AUC(0-t),"1.5 g, Cohort 3 (1.50 g) single oral dose, read-out: Compound (1) plasma AUC0-tlast, Median",2960 ng·h/mL
same,Cmax,"1.5 g, Cohort 3 (1.50 g) single oral dose, read-out: Compound (1) plasma Cmax, Mean",3360 ng/mL
same,Cmax,"1.5 g, Cohort 3 (1.50 g) single oral dose, read-out: Compound (1) plasma Cmax, Median",2920 ng/mL
same,half-life,"1.5 g, Cohort 3 (1.50 g) single oral dose, read-out: Compound (1) plasma t1/2, Mean (converted)",1.04 h
same,half-life,"1.5 g, Cohort 3 (1.50 g) single oral dose, read-out: Compound (1) plasma t1/2, Median (converted)",1.06 h
same,AUC(0-inf),"3 g, Cohort 4 (3.00 g) single oral dose, read-out: Compound (1) plasma AUC0-inf, Mean",7520 ng·h/mL
same,AUC(0-inf),"3 g, Cohort 4 (3.00 g) single oral dose, read-out: Compound (1) plasma AUC0-inf, Median",7410 ng·h/mL
same,AUC(0-t),"3 g, Cohort 4 (3.00 g) single oral dose, read-out: Compound (1) plasma AUC0-tlast, Mean",7510 ng·h/mL
same,AUC(0-t),"3 g, Cohort 4 (3.00 g) single oral dose, read-out: Compound (1) plasma AUC0-tlast, Median",7410 ng·h/mL
same,Cmax,"3 g, Cohort 4 (3.00 g) single oral dose, read-out: Compound (1) plasma Cmax, Mean",11300 ng/mL
same,Cmax,"3 g, Cohort 4 (3.00 g) single oral dose, read-out: Compound (1) plasma Cmax, Median",11200 ng/mL
same,half-life,"3 g, Cohort 4 (3.00 g) single oral dose, read-out: Compound (1) plasma t1/2, Mean (converted)",1.15 h
same,half-life,"3 g, Cohort 4 (3.00 g) single oral dose, read-out: Compound (1) plasma t1/2, Median (converted)",1.12 h
same,AUC(0-inf),"4.5 g, Cohort 5 (4.50 g) single oral dose, read-out: Compound (1) plasma AUC0-inf, Mean",11400 ng·h/mL
same,AUC(0-inf),"4.5 g, Cohort 5 (4.50 g) single oral dose, read-out: Compound (1) plasma AUC0-inf, Median",11600 ng·h/mL
same,AUC(0-t),"4.5 g, Cohort 5 (4.50 g) single oral dose, read-out: Compound (1) plasma AUC0-tlast, Mean",11100 ng·h/mL
same,AUC(0-t),"4.5 g, Cohort 5 (4.50 g) single oral dose, read-out: Compound (1) plasma AUC0-tlast, Median",11600 ng·h/mL
same,Cmax,"4.5 g, Cohort 5 (4.50 g) single oral dose, read-out: Compound (1) plasma Cmax, Mean",12800 ng/mL
same,Cmax,"4.5 g, Cohort 5 (4.50 g) single oral dose, read-out: Compound (1) plasma Cmax, Median",14000 ng/mL
same,half-life,"4.5 g, Cohort 5 (4.50 g) single oral dose, read-out: Compound (1) plasma t1/2, Mean (converted)",1.14 h
same,half-life,"4.5 g, Cohort 5 (4.50 g) single oral dose, read-out: Compound (1) plasma t1/2, Median (converted)",1.13 h
same,AUC(0-inf),"6 g, Cohort 6 (6.00 g) single oral dose, read-out: Compound (1) plasma AUC0-inf, Mean",18400 ng·h/mL
same,AUC(0-inf),"6 g, Cohort 6 (6.00 g) single oral dose, read-out: Compound (1) plasma AUC0-inf, Median",18000 ng·h/mL
same,AUC(0-t),"6 g, Cohort 6 (6.00 g) single oral dose, read-out: Compound (1) plasma AUC0-tlast, Mean",18400 ng·h/mL
same,AUC(0-t),"6 g, Cohort 6 (6.00 g) single oral dose, read-out: Compound (1) plasma AUC0-tlast, Median",18000 ng·h/mL
same,Cmax,"6 g, Cohort 6 (6.00 g) single oral dose, read-out: Compound (1) plasma Cmax, Mean",17600 ng/mL
same,Cmax,"6 g, Cohort 6 (6.00 g) single oral dose, read-out: Compound (1) plasma Cmax, Median",16500 ng/mL
same,half-life,"6 g, Cohort 6 (6.00 g) single oral dose, read-out: Compound (1) plasma t1/2, Mean (converted)",1.18 h
same,half-life,"6 g, Cohort 6 (6.00 g) single oral dose, read-out: Compound (1) plasma t1/2, Median (converted)",1.18 h
same,AUC(0-inf),"7.25 g, Cohort 7 (7.25 g) single oral dose, read-out: Compound (1) plasma AUC0-inf, Mean",19600 ng·h/mL
same,AUC(0-inf),"7.25 g, Cohort 7 (7.25 g) single oral dose, read-out: Compound (1) plasma AUC0-inf, Median",19400 ng·h/mL
same,AUC(0-t),"7.25 g, Cohort 7 (7.25 g) single oral dose, read-out: Compound (1) plasma AUC0-tlast, Mean",19600 ng·h/mL
same,AUC(0-t),"7.25 g, Cohort 7 (7.25 g) single oral dose, read-out: Compound (1) plasma AUC0-tlast, Median",19400 ng·h/mL
same,Cmax,"7.25 g, Cohort 7 (7.25 g) single oral dose, read-out: Compound (1) plasma Cmax, Mean",22100 ng/mL
same,Cmax,"7.25 g, Cohort 7 (7.25 g) single oral dose, read-out: Compound (1) plasma Cmax, Median",22200 ng/mL
same,half-life,"7.25 g, Cohort 7 (7.25 g) single oral dose, read-out: Compound (1) plasma t1/2, Mean (converted)",1.11 h
same,half-life,"7.25 g, Cohort 7 (7.25 g) single oral dose, read-out: Compound (1) plasma t1/2, Median (converted)",1.12 h
same,Tmax,Cohort 4 (3.00 g) single oral dose,0.5 h
same,Tmax,Cohort 6 (6.00 g) single oral dose,0.5 h
same,Tmax,[1],0.62 h
